The structures appear in SMILES notation.

From patent publication US11168079B2, “Alkene compounds as farnesoid x receptor modulators” (BRISTOL-MYERS SQUIBB COMPANY, priority 2017, dated 2021) come the findings set out here.

One assay has as its target T1, human FXR (Homo sapiens, UniProt Q96RI1).
T1 sequence (Q96RI1 262-486 limits assumed): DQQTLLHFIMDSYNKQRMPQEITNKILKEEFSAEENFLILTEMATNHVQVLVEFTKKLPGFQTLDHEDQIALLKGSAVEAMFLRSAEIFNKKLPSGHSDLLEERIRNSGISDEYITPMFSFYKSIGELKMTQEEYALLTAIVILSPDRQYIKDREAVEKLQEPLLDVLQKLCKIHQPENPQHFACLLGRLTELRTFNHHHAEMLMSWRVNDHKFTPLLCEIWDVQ
Put plainly: transient human FXR/Gal4-luciferase reporter assay (HLE GAL-FXR). The note with it: FXR EC50 (nM), Gal4-hFXR fusion reporter, HEK293 cells; Table 1.
The compound `O=C(O)c1nc2ccc(N3CC4C(/C=C/c5c(-c6c(Cl)cncc6Cl)noc5C5CC5)C4C3)cc2s1` (stereo not drawn) [Example 107] yielded an EC50 of 472 nM.

For the compound `CC(C)Oc1cc(C(=O)O)nc2ccc(N3CCC(/C=C/c4c(-c5ccccc5OC(F)(F)F)noc4C4CC4)CC3)cc12` [Example 108], the midpoint of the response, the EC50, lay at 22 nM.

Compound `CC(C)Oc1cc(C(=O)O)nc2ccc(N3CC4C(/C=C/c5c(-c6c(Cl)cncc6Cl)noc5C5CC5)C4C3)cc12` (stereo not drawn) [Example 109] showed an EC50 of 25 nM.

Turning to `CC(C)Oc1cc(C(=O)O)nc2ccc(N3CCC(/C=C/c4c(-c5ccncc5C(F)(F)F)noc4C4CC4)CC3)cc12` [Example 110], the EC50 was found to be 5 nM.

`Cc1cc(C(=O)O)nc2sc(N3CCC(/C=C/c4c(-c5c(Cl)cncc5Cl)noc4C4CC4)CC3)nc12` [Example 112] had an EC50 of 155 nM.

The compound `COCCOc1cc(C(=O)O)nc2ccc(N3CC4C(/C=C/c5c(-c6c(Cl)cncc6Cl)noc5C5CC5)C4C3)cc12` (stereo not drawn) [Example 113] registered an EC50 of 154 nM.

For `COc1cc(C(=O)O)cc2sc(N3CC4C(/C=C/c5c(-c6c(Cl)cncc6Cl)noc5C5CC5)C4C3)nc12` (stereo not drawn) [Example 114], the EC50 turned out to be 131 nM.

`O=C(O)c1cc2ccc(N3CCC(/C=C/c4c(-c5ncccc5C(F)(F)F)noc4C4CC4)CC3)cc2cn1` [Example 115] registered an EC50 of 112 nM.

Take `O=C(O)c1cccc(-c2nc(N3CC4C(/C=C/c5c(-c6c(Cl)cncc6Cl)noc5C5CC5)C4C3)no2)c1` (stereo not drawn) [Example 117]: the EC50 worked out at 494 nM.

`O=C(O)c1cnn2cc(N3CCC(/C=C/c4c(-c5ccccc5OC(F)(F)F)noc4C4CC4)CC3)ccc12` [Example 118] showed an EC50 of 276 nM.

In the case of `Cc1nc(C(=O)O)cc2ccc(N3CCC(/C=C/c4c(-c5ccccc5OC(F)(F)F)noc4C4CC4)CC3)cc12` [Example 119], the EC50 amounted to 96 nM.

The compound `O=C(O)c1cc(OC2CCOC2)c2cc(N3CC4C(/C=C/c5c(-c6c(Cl)cncc6Cl)noc5C5CC5)C4C3)ccc2n1` (stereo not drawn) [Example 120] registered an EC50 of 18 nM.

Turning to `O=C(O)c1ccc(N2CC3C(/C=C/c4c(-c5c(Cl)cncc5Cl)noc4C4CC4)C3C2)c2ncccc12` (stereo not drawn) [Example 121], the EC50 came to 824 nM.

Compound `COc1nc(C(=O)O)cc2ccc(N3CC4C(/C=C/c5c(-c6c(Cl)cncc6Cl)noc5C5CC5)C4C3)cc12` (stereo not drawn) [Example 122] showed an EC50 of 126 nM.

As to `O=C(O)c1cc(-c2nc(N3CC4C(/C=C/c5c(-c6c(Cl)cncc6Cl)noc5C5CC5)C4C3)no2)cc(C(F)(F)F)c1` (stereo not drawn) [Example 123], the EC50 is 206 nM.

As to `COc1cc(C(=O)O)nc2sc(N3CC4C(/C=C/c5c(-c6c(Cl)cncc6Cl)noc5C5CC5)C4C3)nc12` (stereo not drawn) [Example 124], the EC50 is 284 nM.

With `COc1cc(C(=O)O)nc2ccc(N3CCC(/C=C/c4c(-c5ncccc5C(F)(F)F)noc4C4CC4)CC3)cc12` [Example 125], the EC50 came to 14 nM.

As for `O=C(O)c1cc(OC2COC2)c2cc(N3CC4C(/C=C/c5c(-c6c(Cl)cncc6Cl)noc5C5CC5)C4C3)ccc2n1` (stereo not drawn) [Example 126], the 50% effective concentration (EC50) stood at 18 nM.

Turning to `O=C(O)c1cc(O[C@@H]2CCOC2)c2cc(N3CC4C(/C=C/c5c(-c6c(Cl)cncc6Cl)noc5C5CC5)C4C3)ccc2n1` (stereo partly drawn) [Example 127], a half-maximal effect (EC50) was put at 30 nM.

`O=C(O)c1cc(O[C@H]2CCOC2)c2cc(N3CC4C(/C=C/c5c(-c6c(Cl)cncc6Cl)noc5C5CC5)C4C3)ccc2n1` (stereo partly drawn) [Example 128] gave an EC50 of 27 nM.

Compound `COc1ccc(COc2cc(C(=O)O)nc3ccc(N4CC5C(/C=C/c6c(-c7c(Cl)cncc7Cl)noc6C6CC6)C5C4)cc23)cc1` (stereo not drawn) [Example 129] gave an EC50 of 240 nM.

Compound `O=C(O)c1cc(OC2CCC2)c2cc(N3CC4C(/C=C/c5c(-c6ccccc6C(F)(F)F)noc5C5CC5)C4C3)ccc2n1` (stereo not drawn) [Example 130] registered an EC50 of 50 nM.

Regarding `COc1cc(C(=O)O)nc2ccc(N3CC4C(/C=C/c5c(-c6ccccc6C(F)(F)F)noc5C5CC5)C4C3)cc12` (stereo not drawn) [Example 132], the EC50 amounted to 16 nM.

Consider `O=C(O)c1cc(OC2COC2)c2cc(N3CC4C(/C=C/c5c(-c6ccccc6C(F)(F)F)noc5C5CC5)C4C3)ccc2n1` (stereo not drawn) [Example 134], for which the midpoint of the response, the EC50, lay at 15 nM.

With `COc1nc(C(=O)O)cc2ccc(N3CC4C(/C=C/c5c(-c6ccccc6C(F)(F)F)noc5C5CC5)C4C3)cc12` (stereo not drawn) [Example 135], the EC50 came to 416 nM.

`O=C(O)c1cc(OC2CCC2)c2cc(N3CC4C(/C=C/c5c(-c6c(Cl)cncc6Cl)noc5C5CC5)C4C3)ccc2n1` (stereo not drawn) [Example 136] showed an EC50 of 20 nM.

The compound `O=C(O)c1cc(OC2COC2)cc(-c2nc(N3CC4C(/C=C/c5c(-c6c(Cl)cncc6Cl)noc5C5CC5)C4C3)no2)c1` (stereo not drawn) [Example 137] displayed an EC50 of 932 nM.

Take `O=C(O)c1cnc2ccc(N3CC4C(/C=C/c5c(-c6ccccc6C(F)(F)F)noc5C5CC5)C4C3)cc2n1` (stereo not drawn) [Example 138]: the EC50 stood at 2470 nM.

The compound `COc1cc(C(=O)O)nc2sc(N3CC4C(/C=C/c5c(-c6ccccc6C(F)(F)F)noc5C5CC5)C4C3)nc12` (stereo not drawn) [Example 139] yielded an EC50 of 163 nM.

In turn, `O=C(O)c1cnc2cc(N3CC4C(/C=C/c5c(-c6ccccc6C(F)(F)F)noc5C5CC5)C4C3)ccc2n1` (stereo not drawn) [Example 140] returned an EC50 of 142 nM.

In turn, `COc1cc(C(=O)O)nc2ccc(N3CC4C(/C=C/c5c(-c6cccnc6C(F)(F)F)noc5C5CC5)C4C3)cc12` (stereo not drawn) [Example 141] returned an EC50 of 98 nM.

Take `O=C(O)c1cc(OC2CCC2)c2cc(N3CC4C(/C=C/c5c(-c6cccnc6C(F)(F)F)noc5C5CC5)C4C3)ccc2n1` (stereo not drawn) [Example 142]: the EC50 was determined as 54 nM.

`O=C(O)c1cc(OC2COC2)c2cc(N3CC4C(/C=C/c5c(-c6cccnc6C(F)(F)F)noc5C5CC5)C4C3)ccc2n1` (stereo not drawn) [Example 143] had a concentration for a half-maximal effect (EC50) of 88 nM.

Compound `O=C(O)c1ccc(N2CC3C(/C=C/c4c(-c5c(Cl)cccc5Cl)noc4C4CC4)C3C2)nc1` (stereo not drawn) [Example 144] had an EC50 of 424 nM.

As to `O=C(O)c1cc(C(F)(F)F)c2cc(N3CC[C@@H](/C=C/c4c(-c5ccccc5C(F)(F)F)noc4C4CC4)C3)ccc2n1` [Example 145], the 50% effective concentration (EC50) was determined as 419 nM.

The compound `O=C(O)c1cc(C(F)(F)F)c2cc(N3CC[C@H](/C=C/c4c(-c5ccccc5C(F)(F)F)noc4C4CC4)C3)ccc2n1` [Example 146] returned an EC50 of 22 nM.

The compound `O=C(O)c1cc(OC2CCC2)c2cc(N3CC[C@@H](/C=C/c4c(-c5ccccc5C(F)(F)F)noc4C4CC4)C3)ccc2n1` [Example 147] registered an EC50 of 139 nM.

In the case of `O=C(O)c1cc(OC2CCC2)c2cc(N3CC[C@H](/C=C/c4c(-c5ccccc5C(F)(F)F)noc4C4CC4)C3)ccc2n1` [Example 148], the response was half-maximal at 2 nM (EC50).

For `CC(C)Oc1cc(C(=O)O)nc2ccc(N3CC(/C=C/c4c(-c5ccccc5C(F)(F)F)noc4C4CC4)C3)cc12` [Example 149], it took 164 nM to reach a half-maximal effect (EC50).

Take `O=C(O)c1cc(OC2CCC2)c2cc(N3CC(/C=C/c4c(-c5ccccc5C(F)(F)F)noc4C4CC4)C3)ccc2n1` [Example 150]: a half-maximal effect (EC50) was put at 58 nM.

Compound `O=C(O)c1cc(OC2COC2)c2cc(N3CC(/C=C/c4c(-c5ccccc5C(F)(F)F)noc4C4CC4)C3)ccc2n1` [Example 151] registered an EC50 of 96 nM.

The compound `O=C(O)c1cc(OC2CC(F)(F)C2)c2cc(N3CC(/C=C/c4c(-c5ccccc5C(F)(F)F)noc4C4CC4)C3)ccc2n1` [Example 152] returned an EC50 of 228 nM.

`COc1cc(C(=O)O)nc2sc(N3CC(/C=C/c4c(-c5ccccc5C(F)(F)F)noc4C4CC4)C3)nc12` [Example 153]: the half-maximal effective concentration (EC50) is 473 nM.

In turn, `COc1cc(C(=O)O)nc2ccc(N3CC(/C=C/c4c(-c5ccccc5C(F)(F)F)noc4C4CC4)C3)cc12` [Example 154] yielded an EC50 of 63 nM.

`COc1cc(C(=O)O)cc(-c2nc(N3CC4C(/C=C/c5c(-c6cccnc6C(F)(F)F)noc5C5CC5)C4C3)no2)c1` (stereo not drawn) [Example 155] registered an EC50 of 784 nM.

Take `CCOc1cc(C(=O)O)nc2ccc(N3CC4C(/C=C/c5c(-c6cccnc6C(F)(F)F)noc5C5CC5)C4C3)cc12` (stereo not drawn) [Example 156]: the EC50 stood at 43 nM.

Turning to `O=C(O)c1cc(O[C@@H]2CCOC2)c2cc(N3CC4C(/C=C/c5c(-c6cccnc6C(F)(F)F)noc5C5CC5)C4C3)ccc2n1` (stereo partly drawn) [Example 157], the response was half-maximal at 165 nM (EC50).

`CCOc1cc(N2CC3C(/C=C/c4c(-c5ccccc5C(F)(F)F)noc4C4CC4)C3C2)cnc1C(N)=O` (stereo not drawn) [Example 158] came in with an EC50 of 555 nM.

As for `O=C(O)c1cc(OC2CCC2)c2cc(N3CC(/C=C/c4c(-c5c(Cl)ccnc5Cl)noc4C4CC4)C3)ccc2n1` [Example 159], the EC50 is 39 nM.

As for `O=C(O)c1cc(OC2COC2)c2cc(N3CC(/C=C/c4c(-c5c(Cl)cncc5Cl)noc4C4CC4)C3)ccc2n1` [Example 160], a half-maximal effect (EC50) was put at 65 nM.

On to `O=C(O)c1cnc2cc(N3CC4C(/C=C/c5c(-c6c(Cl)cncc6Cl)noc5C5CC5)C4C3)ccc2n1` (stereo not drawn) [Example 161], for which the EC50 was 192 nM.

The assay is the same for the next values; noted with them: HLE GAL-FXR EC50, Gal4-hFXR fusion reporter, HEK293 cells.
`O=C(O)c1ccc(-c2nc(N3CC4C(/C=C/c5c(-c6c(Cl)cncc6Cl)noc5C5CC5)C4C3)no2)cc1` (stereo not drawn) [Example 116, (E)-4-(3-(6-(2-(5-Cyclopropyl-3-(3,5-dichloropyridin-4-yl)isoxazol-4-yl)vinyl)-3-azabicyclo[3.1.0]hexan-3-yl)-1,2,4-oxadiazol-5-yl)benzoic acid] displayed an EC50 of 862 nM.

`O=C(O)c1cccc(-c2noc(N3CC4C(/C=C/c5c(-c6c(Cl)cncc6Cl)noc5C5CC5)C4C3)n2)c1` (stereo not drawn) [Example 133, (E)-3-(5-(6-(2-(5-cyclopropyl-3-(3,5-dichloropyridin-4-yl)isoxazol-4-yl)vinyl)-3-azabicyclo[3.1.0]hexan-3-yl)-1,2,4-oxadiazol-3-yl)benzoic acid] came in with an EC50 of 1290 nM.

The same assay, now with this note: read-out: FXR EC50; Gal4-hFXR fusion reporter, HEK293 cells; Table 1.
Take `Cc1cc(C(=O)O)nc2ccc(N3CC4C(/C=C/c5c(-c6c(Cl)cncc6Cl)noc5C5CC5)C4C3)cc12` (stereo not drawn) [Example 111]: the EC50 came out at 38 nM.
